The record followed here is patent US8822533B1, “Methods and compositions for repelling and/or killing insects” (The United States of America, as represented by the …, priority 2011, dated 2014).

The subject of assay [1] is bed bugs (Cimex lectularius). Put plainly: Bed bug mortality on treated filter paper. The class given is in vivo. Conditions: 24 h.
The subject of a further assay is Ae. aegypti mosquitoes. As to the kind of experiment: Sleeve bite protection assay on treated uniform fabric, mosquitoes. It is filed as in vivo, Aedes aegypti (Orlando, 1952). The method, then: Biological Evaluation: Bite protection assays were conducted with laboratory-reared 7-12 day old mosquitoes or sand flies. The species used throughout these studies are Aedes aegypti (Orlando, 1952) and Phlebotomus papatasi sand flies (Jerusalem, 1983). Females were pre-selected using either a hand draw box or a mechanical aspirator. An assay was conducted by wearing sewn sleeves made from clothing material. Treated specimens were assayed with untreated controls to correct for the bite resistance afforded by material construction and composition. The untreated control was tested at the beginning of the experiment, followed by successively higher candidate repellent concentrations on sleeves. Sleeves were sewn from a cut out single ply trapezoidal pattern (33.2 cm×21 cm×25.5 cm height) of material. […] Permethrin was 35:65cis: trans, 95.85% technical material. Experimental repellents were received as neat samples with <5% impurities. The treatment occurred by dissolution of repellent in suitable quantity of acetone to saturate the clothing, but minimizing excess solution. Excess solution was quantified and this amount of excess was then used to calculate the estimated amount of repellent applied to the material. […] The photoperiod was 12:12. The mosquito cages were approximately 60000 cm^3 and each contained 175 to 225 female mosquitoes. […] Cages for sand fly work were slightly smaller (15000 cm^3) and constructed of acrylic for filming purposes and with screens on the exterior edges to allow air flow through the system. About 20-40 sand flies were released in cages for each assay. Assays started when the sleeved arm was inserted through the sleeve into the cage. Normally the hand was protected by a glove, but there were situations (i.e. sand fly data presented here) when the ability of a repellent to protect the untreated hand was determined. The assay periods were 15 min for the mosquitoes and 25-30 minutes for sand flies. The insects were allowed to land, probe and possibly bloodfeed during this time. At the conclusion of the experiment, all insects were knocked down or aspirated and the percentage that bloodfed of the total female test population in the cage was recorded. The protect level was calculated by Abbott's formula as a percentage reduction in bites compared to the untreated fabric control sleeve. Specific conditions for bioassays are noted with corresponding data contained in the Tables.

Assay [2] concerns Mosquitoes, either Aedes aegypti (Liverpool) or Anopheles stephensi Liston. As to the kind of experiment: K&D module in vitro bioassay: biting protection, knockdown and mortality. The class given is in vivo. Conditions: for mortality at 0.0025 µM / mortality at 0.025 µM: Aedes aegypti; for mortality at 0.0025 µM: 24 h; for mortality at 0.025 µM: 48 h. The method, then: In vitro bioassays were conducted as described by Klun et. al. (Klun, J. A., et al., J. Med. Entomol., 40: 293-299 (2005)). Each test replicate consisted of 3 treatments: a control (EtOH); a standard (Deet, 4.54 nmol/μl); and an experimental compound (pyrethroid analogs, 4.54 nmol/ul). The 3 treatments were randomly assigned to consecutive cells in 2, 6-cell reservoirs connected in series to a single water-bath pump; thus, 4 replicates could be tested/run. Tests were performed in an Air Science USA hood, with an air movement velocity of approx. 110-120 ft./min., temperature of 25-27° C., and RH of 15-25%. A 6-celled reservoir was connected to and heated by a constant-temperature (38° C.) water circulator (Lauda E100, Wobser GMGH and Co., Konigshofell, Germany).
Prior to each test, the upper surface of each reservoir was coated with a thin layer of high-vacuum silicone grease (Dow Corning Corp., Midland, Mich.), and the cells then filled (approx. 6 ml. capacity) or topped-off with either: (1) expired human red blood cells suspended in citrate-phosphate-dextrose-adenine (CPDA) solution, not more than 1 month past expiration date, and to which 110 mg ATP/35 ml. blood-CPDA had been added on the day of testing; or (2) CPDA+ATP×^−3, usually made up or diluted to 10^−3 ATP on the day of testing. The filled cells were then covered with an Edicol collagen membrane (Devro, Sandy Run, S.C.) strip, and then with a just-treated (110 μl of 4.54 nmol/μl treatment or control solution) organdy cloth (G Street Fabrics, Rockville, Md.) strip. Mosquitoes used in tests were either Aedes aegypti_(Liverpool) or Anopheles stephensi_Liston. K&D modules containing 5 adult females/cell were placed over a Teflon separator atop each reservoir; the sliding floors opened allowing access to the treated organdy cloth and membrane-covered cell; and the number of mosquitoes biting (proboscis inserted through the cloth) and/or observed to be engorged within each cell at the end of a 3-5 min. exposure period was recorded. Mosquitoes were used only once in a test, and then frozen and discarded.
Only tests in which 3 or more females fed in the control cell were analyzed, as lower feeding rates are indicative of substandard feeding readiness of that group of mosquitoes.
[…] Data were collected to record knockdown in 6 minutes, one hour and 24 hours post exposure.

Assay [3] deals with bed bugs (Cimex lectularius). Put plainly: Bed bug mortality on treated filter paper. The class given is in vivo. Conditions: Cimex lectularius, 24 h. The procedure: Knockdown data and mortality for volatile pyrethroids against bed bugs (Cimex lectularius): Compounds were dissolved in acetone to yield concentrations of 100 μg/cm^2, 10 μg/cm^2, and 1 μg/cm^2 and 47 mm filter paper disks were treated. Acetone-treated filter paper was used as a negative control. Mixed stages (nymphs and adults) of a laboratory colony of the bed bug Cimex lectularius were placed on the treated filter paper in glass Petri dishes and mortality was recorded 24 h later, at which time bed bugs were removed to untreated surfaces. 24 h after this transfer another assessment of mortality was made to see if any dead or moribund bugs had recovered.

Where [4] appears, read: ACU (50/50 NYCO) sleeve, glove on hand, 15 min, permethrin 0.118, transfluthrin 0.108, TL-I-107 0.107, TL-I-141 0.109, TL-I-105 0.107, TL-I-73 0.102 mg/cm^2.
The mark [5] stands for this setting: ACU (50/50 NYCO) sleeve, glove on hand, Abbott's formula vs untreated sleeve, concentrations as E1.
Where [6] appears, read: ACU (50/50 NYCO) sleeve, glove on hand, concentrations as E1.
Where [7] appears, read: ACU sleeve, stored one year then tested, concentrations as E1.
The mark [8] stands for this setting: ACU sleeve, treated specimens stored in refrigerator for one year then tested, concentrations as E1.

With `CC(C)=C[C@@H]1[C@@H](C(=O)OCc2c(F)c(F)c(C)c(F)c2F)C1(C)C` [TL-I-105], in assay [1], the mortality (as a rule, the percentage killed) at 5 µg/cm2 turned out to be 100%. Moreover, in the assay with Ae. aegypti mosquitoes (setting [4]), the “Blood-fed #” value is 0 #. For the same molecule, in the assay on Ae. aegypti mosquitoes (setting [5]), the “Bite Protection (%)” value is given as 100%. Besides, in the assay on Ae. aegypti mosquitoes (setting [6]), the “Fed (%)” value is 0.0%. In the assay with Ae. aegypti mosquitoes (setting [7]), the “Bite Protection (%)” value came to 100% and the “Fed (%)” value is 0.0%. Further, in the assay on Ae. aegypti mosquitoes (setting [8]), the “Blood-fed #” value is 0 #. Moreover, in assay [2] (2.5 nM\cm^2, K&D module), the “Knockdown 6 min (%)” value worked out at 98%, the “Knockdown 24 hours (%)” value worked out at 100% and the “Not feeding 3 minutes (%)” value stood at 100%. In addition, in assay [2] (2.5 nmol/cm^2, K&D module), the “Knockdown 1 hour (%)” value amounted to 100%. Moreover, in assay [2] (25 nM\cm^2, K&D module), the “Knockdown 6 min (%)” value stood at 100%, the “Knockdown 24 hours (%)” value worked out at 100% and the “Not feeding 3 minutes (%)” value turned out to be 100%. Moreover, the “Knockdown 1 hour (%)” value in assay [2] (25 nmol/cm^2, K&D module) turned out to be 100%. In assay [2], the mortality at 0.0025 µM turned out to be 100% and the mortality at 0.025 µM amounted to 100%. In assay [3], this molecule yielded a mortality at 1 µg/cm2 of 10%, a mortality at 10 µg/cm2 of 100% and a mortality at 100 µg/cm2 of 100%.

On to `CC(C)=C[C@@H]1[C@@H](C(=O)OCc2c(F)c(F)cc(F)c2F)C1(C)C` [TL-I-107], for which the mortality at 5 µg/cm2 in assay [1] is 100%. In addition, the “Blood-fed #” value in the assay on Ae. aegypti mosquitoes (setting [4]) was 0 #. Further, the “Bite Protection (%)” value in the assay on Ae. aegypti mosquitoes (setting [5]) was determined as 100%. Moreover, in the assay with Ae. aegypti mosquitoes (setting [6]), the “Fed (%)” value is 0.0%. For the same molecule, in the assay on Ae. aegypti mosquitoes (setting [7]), the “Bite Protection (%)” value is 100% and the “Fed (%)” value is given as 0.0%. Also, the “Blood-fed #” value in the assay on Ae. aegypti mosquitoes (setting [8]) is 0 #. For the same molecule, in assay [2] (2.5 nM\cm^2, K&D module), the “Knockdown 6 min (%)” value is on record as 100%, the “Knockdown 24 hours (%)” value worked out at 100% and the “Not feeding 3 minutes (%)” value amounted to 100%. Further, the “Knockdown 1 hour (%)” value in assay [2] (2.5 nmol/cm^2, K&D module) is 100%. In assay [2] (25 nM\cm^2, K&D module), the “Knockdown 6 min (%)” value came out at 100%, the “Knockdown 24 hours (%)” value amounted to 100% and the “Not feeding 3 minutes (%)” value amounted to 100%. Besides, the “Knockdown 1 hour (%)” value in assay [2] (25 nmol/cm^2, K&D module) is listed as 100%. In assay [2], this molecule showed a mortality at 0.0025 µM of 100% and a mortality at 0.025 µM of 100%. In assay [3], this molecule showed a mortality at 1 µg/cm2 of 0%, a mortality at 10 µg/cm2 of 100% and a mortality at 100 µg/cm2 of 100%.
